Source: patent publication US9469645B2, “Compounds and compositions for the treatment of parasitic diseases” (Novartis AG, priority 2009, dated 2016)

Assays:
[1] = tested on: W2 strain; experiment: parasite proliferation assay in infected red blood cells (SYBR Green I), W2 strain; type: cell-based; details: Erythrocyte
Excerpt: (§1) Compounds of the invention can be assayed to measure their capacity to inhibit proliferation of parasitemia in infected red blood cells. The proliferation is quantified by the addition of SYBR Green I (INVITROGEN)® dye which has a high affinity for double stranded DNA.

[2] = tested on: 3D7 P. falciparum strain; experiment: parasite proliferation assay in infected red blood cells (SYBR Green I); type: cell-based, Plasmodium falciparum; details: Plasmodium falciparum, 3D7, Erythrocyte, 3D7 strain; read-out: EC50 3D7 strain
Excerpt: as §1
The following assay illustrates the invention without in any way limiting the scope of the invention. This parasite proliferation assay measures the increase in parasite DNA content using a DNA intercalating dye, SYBR Green®.
3D7 P. falciparum strain is grown in complete culturing media until parasitemia reaches 3% to 8% with O+ human erythrocytes. 20 μl of screening media is dispensed into 384 well assay plates. […] 10 μl of lysis buffer (saponin, triton-X, EDTA) containing a 10× solution of SYBR Green I® in RPMI media is dispensed into the plates. The plates are lidded and kept at room temperature overnight for the lysis of the infected red blood cells.

Row | SMILES | EC50 [1] | EC50 [2] | EC50 ([1]; Plasmodium falciparum)
1 | CCCNC(=O)C[C@H](NC(=O)OC(C)(C)C)C(=O)N1CCn2c(nc(-c3cccc(F)c3)c2Nc2ccc(Cl)c(F)c2)C1 [Compound 247] | 3940 nM | 1420 nM | –
2 | COC(C(=O)N1CCn2c(nc(-c3ccc(F)cc3)c2Nc2ccc(C)cc2)C1)(c1ccccc1)C(F)(F)F (centres unmarked) [Compound 128] | 743 nM | 1180 nM | –
3 | CN(C)C1CCN(c2c(-c3ccc(F)cc3)nc3n2CCN(C(=O)CN)C3(C)C)C1 (centres unmarked) [Compound 668] | – | 3430 nM | > 10000 nM
4 | CC1(C)c2nc(-c3ccc(F)cc3)c(-c3ccc(F)c(Cl)c3)n2CCN1C(=O)CN [Compound 706] | – | 252 nM | 237 nM
5 | CC(C)(N)C(=O)N1CCn2c(nc(-c3ccc(F)cc3)c2NCc2ccccc2)C1 [Compound 23] | 10500 nM | > 10600 nM | –
6 | CC(C)(N)C(=O)N1CCn2c(nc(-c3cccc(F)c3)c2Nc2ccc(F)cc2C(F)(F)F)C1 [Compound 375] | 679 nM | 1130 nM | –
7 | CC1(C)c2nc(-c3ccc(F)cc3)c(NC3CCC(F)(F)CC3)n2CCN1C(=O)CN [Compound 660] | – | 3 nM | 6 nM
8 | CN1Cc2nc(-c3ccc(F)cc3)c(Nc3ccc(Cl)c(F)c3)n2C(C)(C)C1 [Compound 609] | – | 7020 nM | 4930 nM
9 | CC1(C)c2nc(-c3ccc(F)cc3)c(NC3CCC3)n2CCN1C(=O)CN [Compound 671] | – | 1290 nM | 1090 nM
10 | O=C(NCC(=O)N1CCn2c(nc(-c3ccc(F)cc3)c2Nc2ccc(F)cc2)C1)OCc1ccccc1 [Compound 49] | 1900 nM | 2290 nM | –
11 | Cc1ccc(-c2c(-c3ccc(Cl)cc3)nc3cnccn23)cc1 [Compound 24] | 2860 nM | 8920 nM | –
12 | Cn1cc(CC(=O)N2CCn3c(nc(-c4ccc(F)cc4)c3Nc3ccc(Cl)c(F)c3)C2)c2ccccc21 [Compound 357] | 4710 nM | 7490 nM | –
13 | O=C(CN1CCCC(C(F)(F)F)C1)N1CCn2c(nc(-c3ccc(F)cc3)c2Nc2ccc(F)cc2)C1 (centres unmarked) [Compound 63] | 1610 nM | 1950 nM | –
14 | Cc1ccc(Nc2c(-c3ccc(F)cc3)nc3n2CCN(C(=O)[C@H](N)CCCCNC(=O)C(F)(F)F)C3)cc1 [Compound 102] | 426 nM | 650 nM | –
15 | C[C@H](N)C(=O)N1CCn2c(nc(-c3ccc(F)cc3)c2Nc2ccc(Cl)c(F)c2)C1 [Compound 314] | 20 nM | 30 nM | –
16 | CC1(C)c2nc(-c3ccc(F)cc3)c(Nc3cccc(C#N)c3)n2CCN1C(=O)CN [Compound 653] | – | 6 nM | 9 nM
17 | CC1(C)c2nc(-c3ccc(F)cc3)c(Nc3ccc(F)cc3)n2CCN1C(=O)CNC(=O)CCc1ccc2oc3ccccc3c2c1 [Compound 727] | – | 6560 nM | 2970 nM
18 | C[C@H](N)C(=O)N1CCn2c(nc(-c3ccc(F)cc3)c2Nc2ccc(F)cc2)C1 [Compound 17] | 64 nM | 90 nM | –
19 | Cc1cc(Nc2c(-c3cccc(F)c3)nc3n2C(C)(C)CN(C(=O)CN)C3)ccc1F [Compound 625] | – | 170 nM | 194 nM
20 | Cc1ccc(Nc2c(-c3ccc(F)cc3)nc3n2CCN(C(=O)C(c2ccccc2)C2CCCC2)C3)cc1 (centres unmarked) [Compound 226] | 348 nM | 480 nM | –

Row | SMILES | EC50 [1] | EC50 [2] | EC50 ([1]; Plasmodium falciparum)
21 | CC(C)[C@@H](O)C(=O)N1CCn2c(nc(-c3ccc(F)cc3)c2Nc2ccc(Cl)c(F)c2)C1 [Compound 360] | 15 nM | 30 nM | –
22 | CN1CCOC(C(=O)N2CCn3c(nc(-c4ccc(F)cc4)c3Nc3ccc(Cl)c(F)c3)C2)C1 (centres unmarked) [Compound 372] | 554 nM | 690 nM | –
23 | NC(C(=O)N1CCn2c(nc(-c3ccc(F)cc3)c2Nc2ccc(Cl)c(F)c2)C1)c1ccc(Cl)cc1 (centres unmarked) [Compound 369] | 84 nM | 110 nM | –
24 | Cc1ccc(Nc2c(-c3ccc(F)cc3)nc3n2CCN(C(=O)C(O)c2ccc(Br)cc2)C3)cc1 (centres unmarked) [Compound 126] | 80 nM | 100 nM | –
25 | Cc1ccc(CC(=O)N2CCn3c(nc(-c4ccc(F)c(F)c4)c3Nc3ccc(C)cc3)C2)cc1 [Compound 390] | 28 nM | 30 nM | –
26 | CC(C)(N)C(=O)N1CCn2c(nc(-c3ccc(F)cc3)c2Nc2cccc(F)c2)C1 [Compound 35] | 105 nM | 120 nM | –
27 | CCCNC(=O)C[C@H](NC(=O)OC(C)(C)C)C(=O)N1CCn2c(nc(-c3cccc(F)c3)c2Nc2ccc(F)cc2)C1 [Compound 248] | 4560 nM | 7010 nM | –
28 | Cc1ccc(Nc2c(-c3ccc(F)cc3)nc3n2CCN(Cc2ccc(-c4ccncc4)cc2)C3)cc1 [Compound 184] | 859 nM | 3650 nM | –
29 | Cc1ccc(Nc2c(-c3ccc(F)cc3)nc3n2CCN(C(=O)C2CCCN2)C3)cc1 (centres unmarked) [Compound 91] | 154 nM | 120 nM | –
30 | Cc1ccc(Nc2c(-c3ccncc3)nc3n2CCN(C(=O)CN)C3)cc1 [Compound 382] | 1040 nM | 1050 nM | –
31 | CC1(C)CN(C(=O)CN)Cc2nc(-c3cccc(F)c3)c(Nc3ccc(F)c(Cl)c3)n21 [Compound 624] | – | 100 nM | 167 nM
32 | Cc1ccc(Nc2c(-c3ccc(F)cc3)nc3n2CCN(C(=O)C(O)C(C)C)C3)cc1 (centres unmarked) [Compound 104] | 7 nM | 10 nM | –
33 | CC1(C)c2nc(-c3ccc(F)cc3)c(C(=O)Nc3ccc(F)cc3)n2CCN1C(=O)CN [Compound 708] | – | 809 nM | 1130 nM
34 | Cc1ccc(Nc2c(-c3ccc(F)cc3)nc3n2CCN(C(=O)C(N)C(F)(F)F)C3)cc1 (centres unmarked) [Compound 144] | 73 nM | 50 nM | –
35 | NCCCC(=O)N1CCn2c(nc(-c3ccc(F)cc3)c2Nc2ccc(F)cc2)C1 [Compound 18] | 8140 nM | 12300 nM | –
36 | Cc1ccc(Nc2c(-c3ccc(F)cc3)nc3n2CCN(C(=O)CC2CCOC2)C3)cc1 (centres unmarked) [Compound 215] | 650 nM | 830 nM | –
37 | CC1CCc2nc(-c3ccc(F)cc3)c(Nc3ccc(Cl)c(F)c3)n2C1 (centres unmarked) [Compound 754] | – | 104 nM | 190 nM
38 | O=C([C@@H]1CCN1)N1CCn2c(nc(-c3ccc(F)cc3)c2Nc2ccc(Cl)c(F)c2)C1 [Compound 321] | 11 nM | 20 nM | –
39 | O=C(CN1CCCC(F)(F)C1)N1CCn2c(nc(-c3ccc(F)cc3)c2Nc2ccc(Cl)cc2)C1 [Compound 76] | 61 nM | 60 nM | –
40 | O=C(CNC1CC1)N1CCn2c(nc(-c3ccc(F)cc3)c2Nc2ccc(F)cc2)C1 [Compound 68] | 264 nM | 150 nM | –

Row | SMILES | EC50 [1] | EC50 [2] | EC50 ([1]; Plasmodium falciparum)
41 | O=C(CN1CCCC(O)C1)N1CCn2c(nc(-c3ccc(F)cc3)c2Nc2ccc(F)cc2)C1 (centres unmarked) [Compound 64] | 6460 nM | 9370 nM | –
42 | Cc1ccc(Nc2c(-c3ccc(F)cc3)nc3n2CCN(C(=O)N2CCC(N(C)C)C2)C3)cc1 (centres unmarked) [Example 251, (3-(dimethylamino)pyrrolidin-1-yl)(2-(4-fluorophenyl)-3-(p-tolylamino)-5,6-dihydroimidazo[1,2-a]pyrazin-7(8H)-yl)methanone] | 2550 nM | 3680 nM | –
43 | Cc1ccc(Nc2c(-c3ccc(F)cc3)nc3n2CCN(C(=O)C(O)c2ccc(F)cc2)C3)cc1 (centres unmarked) [Compound 107] | 10 nM | 10 nM | –
44 | COCCN[C@@H](Cc1ccccc1)C(=O)N1CCn2c(nc(-c3ccc(F)cc3)c2Nc2ccc(Cl)c(F)c2)C1 [Compound 282] | 117 nM | 120 nM | –
45 | CCCC(=O)Nc1ccc(C[C@H](N)C(=O)N2CCn3c(nc(-c4ccc(F)cc4)c3Nc3ccc(C)cc3)C2)cc1 [Compound 197] | 1040 nM | 4160 nM | –
46 | Cc1ccc(Nc2c(-c3ccc(F)cc3)nc3n2CCCC3)cc1 [Compound 750] | – | 4770 nM | 4960 nM
47 | CC(C)(N)C(=O)N1CCn2c(nc(-c3ccc(F)cc3)c2Nc2cc(Cl)cc(Cl)c2)C1 [Compound 644] | – | 310 nM | 490 nM
48 | CCc1ccc(Nc2c(-c3ccc(F)cc3)nc3n2CCN(C(=O)CN)C3(C)C)cc1 [Compound 648] | – | 9 nM | 8 nM
49 | CCN1CCC(CC(=O)N2CCn3c(nc(-c4ccc(F)cc4)c3Nc3ccc(C)cc3)C2)CC1 [Compound 214] | 2010 nM | 2850 nM | –
50 | CCN(CC)CCOc1ccccc1-c1nc2ccccn2c1NC(C)(C)CC(C)(C)C [Compound 744] | – | 5240 nM | 2810 nM
51 | Cc1cc(Nc2c(-c3ccc(F)cc3)nc3n2C(C)(C)C(=O)N(C)C3)ccc1F [Compound 617] | – | 6330 nM | 6880 nM
52 | C[C@H](OCc1ccccc1)[C@H](N)C(=O)N1CCn2c(nc(-c3ccc(F)cc3)c2Nc2ccc(Cl)c(F)c2)C1 [Compound 312] | 897 nM | 1640 nM | –
53 | Cc1ccc(Nc2c(-c3ccc(F)cc3)nc3n2CCN(C(=O)C[C@@H](N)Cc2ccc(Br)cc2)C3)cc1 [Compound 171] | 214 nM | 170 nM | –
54 | Cc1ccc(Nc2c(-c3ccc(F)cc3F)nc3n2CCNC3)cc1 [Compound 280] | 4650 nM | 4710 nM | –
55 | CC1(C)c2nc(-c3ccc(F)cc3)c(Nc3ccc(C#N)c(C(F)(F)F)c3)n2CCN1C(=O)CN [Compound 655] | – | 17 nM | 20 nM
56 | CC(C)CNCC(=O)N1CCn2c(nc(-c3ccc(F)cc3)c2Nc2ccc(F)cc2)C1 [Compound 69] | 94 nM | 80 nM | –
57 | Cc1ccc(Nc2c(-c3ccc(F)cc3)nc3ccccn23)cc1 [Compound 751] | – | 1790 nM | 4550 nM
58 | Cc1ccc(Nc2c(-c3ccc(F)cc3)nc3n2CCN(C(=O)C(O)c2ccccc2)C3)cc1 (centres unmarked) [Compound 82] | 7 nM | – | –
59 | Cc1ccc(Nc2c(-c3ccc(F)cc3)nc3n2CCN(C(=O)[C@@H](O)Cc2ccccc2)C3)cc1 [Compound 106] | 4 nM | – | –
